For data set [1], the system named is TPA-induced PGE2 expression in keratinocytes. The data set can be described thus: TPA induced PGE-2 in human skin keratinocytes (ELISA). In kind it is cell-based. As to conditions: Keratinocyte, Example 4 (FIG. 5), TPA 32 nM, read-out: percent inhibition of TPA induced PGE-2. As to the method: (§1) For this experiment, human skin fibroblasts were seeded into 12 well culture dishes at a density of 80,000 cells/well in tissue culture medium and left overnight to attach to the dish. The next day, medium was removed and replaced with fresh medium containing either 1% ethanol as a diluent control, IL-1 at a concentration of 500 picograms/ml, or IL-1 plus one of the compounds under investigation at a concentration of 1, 10, 50 or 100 μM. Cells were incubated for an additional 24 hours and at this time, the medium was removed and assayed by ELISA for the presence of PGE-2 in the culture medium.
Similar in vitro studies as those described in Example 3 were run using human skin keratinocytes. The experimental set up was the same as described for Example 3 but replacing IL-1 with tetradecanoyl phorbol acetate (TPA) at a concentration of 32 nM as the agonist. The compounds tested were 2-ethoxybenzaldehyde (2-EB) and 3-ethoxybenzaldehyde (3-EB) and 4-ethoxybenzaldehyde (4-EB) in concentrations of either 10, 50, or 100 μM.

The next data set has as its system IL-1 induction of PGE-2. Description: IL-1 induced PGE-2 in human skin fibroblasts (ELISA). In kind it is cell-based. Particulars: for inhibition at 100 µM: Example 3 (FIG. 4A); for inhibition at 50 µM: Example 3 (FIG. 4A/4B); for IL-1 induction of PGE-2 blocked: Example 2 dose-response (FIG. 3). As for the experimental part: For this experiment, human skin fibroblasts were seeded into 12 well culture dishes, at a density of 80,000 cells/well in tissue culture medium and left overnight to attach to the dish. The next day, medium was removed and replaced with fresh medium containing either 1% ethanol as a diluent control, IL-1 at a concentration of 500 picograms/ml, or IL-1 plus 4-EB at either 250 μM or 500 μM. Cells were incubated for an additional 24 hours and at this time, the medium was removed and assayed by ELISA for the presence of PGE-2 the culture medium.
Subsequent studies were carried out to determine the dose-response of human skin fibroblasts to 4-EB. […] The results of the study are provided graphically in FIG. 3.
as §1
A general note: An ELISA detects its analyte on a solid surface through an enzyme-linked reagent.

Data set [2] can be described thus: Franz cell percutaneous absorption analysis. In kind it is in vitro ADME, human. As to conditions: from 1.0% 4-EB lotion; 24 hour period. As to the method:
This lotion was then tested by Franz cell percutaneous absorption analysis to determine how much 4-EB could penetrate human skin over a 24 hour period. The lotion formulation above provided a flux rate of 4-EB through human skin of 30-50 micrograms/hour.

Setting [3] is: Homo sapiens, Skin fibroblast, 100 μM, IL-1 500 picograms/ml, 24 hours, read-out: Percent inhibition of IL-1 induced PGE-2.
[4] abbreviates: Homo sapiens, Skin fibroblast, 50 μM, IL-1 500 picograms/ml, 24 hours, read-out: Percent inhibition of IL-1 induced PGE-2.

The structures appear in SMILES notation.

In general, inhibition refers to the change of the read-out against control, counted positive when it falls. On to `CCOc1cccc(C=O)c1` [3-EB, 3-ethoxybenzaldehyde], for which the inhibition at 50 µM in data set [1] was 57.7%; in the data set with IL-1 induction of PGE-2 (setting [4]), 42.6%. The inhibition at 100 µM in data set [1] was 76.7%; in the data set with IL-1 induction of PGE-2 (setting [3]) it was 41.2%.

For `CCOc1ccc(C=O)cc1` [4-EB, 4-ethoxybenzaldehyde], the inhibition at 50 µM in data set [1] amounted to 79.9%. Moreover, the results for the inhibition at 100 µM (in data set [1]; in the data set on IL-1 induction of PGE-2 (setting [3])) were 94.9% and 81.5%, respectively. Also, the “inhibition of the IL-1 induction of PGE-2” value in the data set on IL-1 induction of PGE-2 (Example 1, 250 μM or 500 μM, IL-1 500 picograms/ml, 24 hours) is “complete inhibition”. For the same molecule, the results for the “IL-1 induction of PGE-2 blocked” value with IL-1 induction of PGE-2 (10 μM), in the data set with IL-1 induction of PGE-2 (50 μM) and with IL-1 induction of PGE-2 (100 μM) were 35%, 82% and “completely blocked”, respectively. Further, the “flux rate of 4-EB through human skin” value in data set [2] is 30-50 micrograms/hour.

On to `COc1ccc(C=O)cc1` [4-MB, 4-methoxybenzaldehyde], for which the “inhibition of the IL-1 induced production of PGE-2 (in words)” value in the data set on IL-1 induction of PGE-2 (Example 3, 10 or 50 μM) is recorded as “did not appear to inhibit”. The inhibition at 50 µM in the data set with IL-1 induction of PGE-2 (setting [4]) amounted to 13.6%. Further, the inhibition at 10 µM in the data set with IL-1 induction of PGE-2 (Homo sapiens, Skin fibroblast, Example 3 (FIG. 4B), 10 μM, IL-1 500 picograms/ml, 24 hours, read-out: Percent inhibition of IL-1 induced PGE-2) is 16.2%.

For the molecule `CCOc1ccccc1C=O` [2-EB, 2-ethoxybenzaldehyde], the inhibition at 10 µM in data set [1] (10 μM) is 55.2%. Further, the figures for the inhibition at 50 µM (in data set [1]; in the data set with IL-1 induction of PGE-2 (setting [4])) were 76.6% and 58.9%, respectively. Further, the figures for the inhibition at 100 µM (in data set [1]; with IL-1 induction of PGE-2 (setting [3])) were 83% and 82.9%, respectively.

Values taken from patent US10702515B2, “Compositions containing aromatic aldehydes and their use in treatments” (Allergan, Inc., priority 2001, dated 2020).
